Test results from patent US20120231025A1 (priority 2009, published 2012).
Entries after “also recorded” stand apart in the source; their conditions may differ. Read-outs that look alike come from different tables or passages of the source.

Key:
[1] = test system: bone marrow cells; conditions: bone marrow cells irradiated with 1 Gy, injected into lethally irradiated recipients (8 Gy); peptide 10 ug per kg intraperitoneally 15-30 minutes after the cells; cited from earlier work
[2] = test system: spleen and thymus; conditions: mice irradiated 2 Gy, peptide 10 μg/kg, cited from earlier work
[3] = test system: influenza antigen; assay type: in vivo, Balb/c mice
[4] = test system: T-cells in spleen; conditions: peptide 10 μg/kg, cited from earlier work
[5] = test system: influenza of the H1N2, H3N2, and B strains; set-up: species or system Balb/c mice; conditions: mouse, in vivo
[6] = test system: hematopoietic cells; conditions: cited from earlier work
[7] = test system: peripheral blood mononuclear cells (PBMC); experiment: MIMIC peripheral tissue equivalent (PTE) assay; assay type: cell-based, human
[8] = test system: antibody forming cells; conditions: cited from earlier work
[9] = test system: allogeneic lymphocytes; conditions: H-2d anti H-2b, cited from earlier work

Ala-Glu-Trp-OH
Number of CFU-S [1]: 8.7 ± 0.4

Glu-Trp-OH
Number of CFU-S [1]: 10.5 ± 0.3

H-L-Ile-L-Glu-L-Trp-OH [Neogen]
Number of CFU-S [1]: 11.5 ± 0.3 | Karyocyte count in thymus ([2]; 3 and 4 injections): a certain growth of the karyocyte count in thymus | Karyocyte count in spleen per mg of organ weight ([2]; one and four injections): increase in the karyocyte count in spleen | IgG1 levels (area-under-the-curve analysis) ([3]; low-dose Neogen with Vaxigrip compared with Vaxigrip alone): statistically significant increase in IgG1 levels | IgG1 response ([3]; mouse, in vivo): progressively lower IgG1 responses | IgG2a response ([3]; mouse, in vivo): higher IgG2a responses | T-cell count ([4]; intact mice, 3 or 4 times): being the same as it was | T-cell count in spleen ([4]; mice irradiated 2 Gy, 1 to 4 injections, especially three or four): grew in all mice who received the peptide injections | HI titer [5]: higher response than any of the other groups; also recorded: higher HI response | HI titer ([5]; sc): no HI titer | Hemoglobin levels ([6]; animals first irradiated and then treated, U.S. Pat. No. 6,159,950, Example 8): more rapidly restored hemoglobin levels | Antibody forming cells (AFC) after challenge with sheep erythrocytes ([6]; irradiated mice, U.S. Pat. No. 6,159,950, Example 4): making antibody forming cells (AFC) against the challenge | Cell-surface expression of HLA-DR on dendritic cells [7]: primed for antigen presentation | Dendritic cells migrating (reverse transmigrating) across the HUVEC layer ([7]; Neogen alone, preliminary): fewer dendritic cells migrating across the HUVEC layer; also recorded: reduced the number of cells found to reverse transmigrate | Number of dendritic cells recovered ([7]; Neogen alone, preliminary): did not | Number of dendritic cells recovered ([7]; Neogen in the presence of antigen, preliminary): increased the number of dendritic cells recovered from the system | Dendritic cells migrating (reverse transmigrating) across the HUVEC layer ([7]; Neogen plus antigen, preliminary): fewer dendritic cells migrating across the HUVEC layer; also recorded: reduced the number of cells found to reverse transmigrate | Differentiation of donor PBMCs into macrophages and dendritic cells ([7]; as little as 1 ug/mL of Neogen in the presence of antigen, preliminary): enhanced the ability of donor PBMCs to differentiate into macrophages and dendritic cells | AFC increase, humoral response to SE ([8]; intact mice, peptide 10 μg/kg intramuscularly, 3 or 4 times): 5 times | Number of antibody forming cells ([8]; mice irradiated 2 Gy, peptide 10 μg/kg, 3 and 4 injections): practically doubled | Proliferation of allogeneic lymphocytes in MLC ([9]; peptide 0.1 μg/mL): negligible inhibition of the proliferation | Proliferation of allogeneic lymphocytes in MLC ([9]; peptide 1, 10, and 20 μg/mL): stimulated proliferation of the allogeneic lymphocytes

Ile-Glu-(Trp)-OH
Number of CFU-S [1]: 8.5 ± 0.5

Ile-Glu-Trp-NH2
Number of CFU-S [1]: 7.9 ± 0.4

Leu-Glu-Trp-OH
Number of CFU-S [1]: 6.5 ± 0.5

Lys-Glu-(Trp)-OH
Number of CFU-S [1]: 5.9 ± 0.5

Lys-Glu-(Trp-NH2)-OH
Number of CFU-S [1]: 5.9 ± 0.4

Lys-Glu-Trp-OH
Number of CFU-S [1]: 6.2 ± 0.4

Phe-Glu-Trp-OH
Number of CFU-S [1]: 6.6 ± 0.3

Pyro-Glu-Trp-OH
Number of CFU-S [1]: 9.3 ± 0.4

Tyr-Glu-Trp-OH
Number of CFU-S [1]: 7.3 ± 0.4

Val-Glu-Trp-OH
Number of CFU-S [1]: 8.2 ± 0.3

iGlu-Trp-OH
Number of CFU-S [1]: 10.1 ± 0.5
